One series deals with HSV-1. Put plainly: HSV-1 DNA replication in the presence of drug (Southern/slot blot). The series is classed as cell-based, HSV-1 Glasgow strain 17. As to the method:
(i) DNA preparation. Vero cells infected with MOI of 5 were infected and maintained in the presence and absence of 50 μg/ml CTC-96. Infected cells were harvested by freezing (−80° C.) at the indicated times postinfection. Total infected cell DNA was extracted as described (54).
(ii) Slot blot analysis. Slot blot analysis was performed as previously described (55). Briefly, equal amounts of nuclear or cytoplasmic infected cell DNAs were blotted onto GeneScreen Plus using a MINIFOLD II Slot Blot System (Schleicher and Schuell, Keene, N.H.) and cross-linked with a Stratalinker 2400 (Stratagene, La Jolla, Calif.) using UV-irradiation. A 4.5 kB SalI-DdeI fragment from the α4 gene of HSV-1 which had been labeled with [α-32P]dCTP (NEN Life Sciences Products, Boston, Mass.) by random priming (Boehringer Mannheim, Indianapolis, Ind.) was hybridized to the nuclear and cytoplasmic DNAs and washed as specified by the manufacturer. Bands were visualized using autoradiography.
A series of experiments were initiated to determine the point in the replication cycle where CTC-96 acts. Our first study examined the effects of drug on replication of virus DNA. Cells were infected at an moi of 5 in the presence of the absence of drug and harvested by trypsinization at 1 and 9 hr post infection. Virus DNA was extracted from cells by selective salt precipitation and the amount of virus-specific DNA was assayed after transfer to a nitrocellulose membrane by Southern blot hybridization using a phophorimager to quantitate signal.
Cells were infected and at various intervals drug was added and left on the infected cell cultures until 24 hr pi. At this time samples were harvested and DNA extracted and analyzed as described above. […] By 12 hr post infection the bulk of DNA replication is complete as there is only a small difference between the hybridization signal generated in an untreated 24 hr sample when compared with a sample treated at 12 hr and analyzed at 24 hr post infection (FIG. 13).

Series [1] relates to varicella-zoster virus (VZV). Nature of the series: VZV infection of Helf cells, immunohistochemistry. It is filed as cell-based, VZV strain Ellen. As to the method:
Helf cell monolayers seeded on two chambered slides were infected with 20 μl cell-associated VZV in 1% FBS DMEM in the presence and absence of 50 μg/ml CTC-96. At 28 h postinfection, the slides were washed twice with PBS, fixed in 3.7% formaldehyde in PBS for 30 min at room temperature, and washed again. The infected cells were washed twice with Tris-buffered saline (TBS) and incubated at −20° C. in −20° C. acetone for 10 min. Slides were washed twice with TBS, blocked with 1% goat serum (Sigma, St. Louis, Mo.) in TBS for 20 min at room temperature, and incubated in 200 μl 1:200 rabbit polyclonal anti-ORF 29 in 1% goat serum TBS for 30 min at room temperature. The slides were washed three times with TBS for 5 min each and then incubated with 200 μl 1:200 goat anti-rabbit IgG conjugated horseradish? peroxidase (Kirkegaard and Perry Laboratories Inc.) in 1% goat serum TBS for 30 min at room temperature. Slides were washed three times with TBS for 5 min each. The peroxidase was developed for 5 min using the commercial kit, Alkaline Phosphatase Substrate Kit III (Vector Laboratories Inc., Burlingame, Calif.) according to the manufacturer's directions and then washed several times with water. The slides were viewed with a Leitz Dialux microscope. Endocytosis assay. Vero cells seeded on cover slips were incubated at 37° C. in 5% BCS DMEM with and without 50 μg/ml CTC-96 for various times. […]

In another series the test system is poliovirus. It is filed as cell-based, poliovirus strain P1 Mahoney.
The conditions of series [2]: 50 μg/ml of CTC-96; cited from earlier work.

Values joined by “and” are separate entries in the source; they are usually repeats but may differ in a detail not shown here. Equal values may be shown once. “Also recorded” adds a separate entry of the source. Read-outs that look alike come from different tables or passages of the source.

Here are results for 1 compound from patent US6756368B1, “Use of cobalt chelates for treating or preventing virus infection” (The Trustees of Columbia University in the City of New York, priority 1999, dated 2004).

The term % Inhibition denotes the percentage by which the read-out fell short of the control.

In the case of `CC(/C=C(/C)[O-])=NCCN=C(C)/C=C(/C)[O-].Cc1ncc[nH]1.Cc1ncc[nH]1.[Br-].[Co+3]` [CTC-96], the “virus DNA associated with infected cells at 1 hr post infection, versus no drug” value with HSV-1 (50 μg/ml from onset, harvest 1 hpi) is given as “no detectable difference; also recorded: equivalent amount of virus DNA”. For the same compound, the “virus DNA replication on temporal addition of drug” value in the series on HSV-1 (drug added at various times post infection, harvest 24 hr pi) is on record as “increasingly more virus DNA replication as drug is added at later times post infection; also recorded: the amount of virus DNA replication increased”. Also, the “increase in accumulation of virus DNA from 1 to 9 hr post infection” value with HSV-1 (drug treated, moi 5) is reported as “barely a two-fold increase”. For the same compound, the “cells positive for VZV” value in series [1] (Helf cells, in the presence of CTC-96) is “Very few cells were positive”. Further, the “% Inhibition” value in series [1] (VZV (Ellen), Helt, 50 μg/ml of CTC-96, immunohistochemistry) is 100%; in the series with poliovirus (Poliovirus (P1/Mahoney), HeLa, 50 μg/ml of CTC-96, plaque assay) it was 40%. Besides, the inhibition of poliovirus in the series on poliovirus (first run, 50 μg/ml) is on record as 42%; in the series with poliovirus (second run, 50 μg/ml) it was 42% inhibition. Further, the “plaques recovered relative to −CTC-96” value in the series on poliovirus (first run, 50 μg/ml) worked out at 58%. The poliovirus plaques is 91 and 80 with poliovirus (first run, dilution −6, 50 μg/ml in diluent, no drug in overlay); 10 and 9 in the series with poliovirus (first run, dilution −7, 50 μg/ml in diluent, no drug in overlay); 0 in the series on poliovirus (first run, dilution −8, 50 μg/ml in diluent, no drug in overlay); 165 in the series with poliovirus (second run, dilution −6, 50 μg/ml, drug also in overlay); 18 and 16 in the series with poliovirus (second run, dilution −7, 50 μg/ml, drug also in overlay). Also, the “toxicity in animal models” value in series [2] was “does not appear to be toxic”.
